Results published in ChEMBL document CHEMBL2150933 (J Med Chem, 2012).

Key:
Assay type in all cases: functional
MDA-MB-468 = test: Cytotoxicity against human MDA-MB-468 cells after 48 hrs by SRB assay; details: MDA-MB-468, 48 h
EKVX = test: Cytotoxicity against human EKVX cells after 48 hrs by SRB assay
HOP-62 = test: Cytotoxicity against human HOP62 cells after 48 hrs by SRB assay; details: HOP-62, 48 h
A549 = test: Cytotoxicity against human A549 cells after 48 hrs by SRB assay; details: A549, 48 h, read-out: pGI50 (converted)
RPMI-8226 = test: Cytotoxicity against human RPMI8226 cells after 48 hrs by SRB assay; details: RPMI-8226, 48 h
SR = test: Cytotoxicity against human SR cells after 48 hrs by SRB assay
K562 = test: Cytotoxicity against human K562 cells after 48 hrs by SRB assay; details: K562, 48 h
MOLT-4 = test: Cytotoxicity against human MOLT4 cells after 48 hrs by SRB assay; details: MOLT-4, 48 h
CCRF-CEM = test: Cytotoxicity against human CCRF-CEM cells after 48 hrs by SRB assay
HL-60 = test: Cytotoxicity against human HL60 cells after 48 hrs by SRB assay; details: HL-60, 48 h
HOP-92 = test: Cytotoxicity against human HOP92 cells after 48 hrs by SRB assay; details: HOP-92, 48 h
NCI-H226 = test: Cytotoxicity against human NCI-H226 cells after 48 hrs by SRB assay; details: NCI-H226, 48 h
NCI-H23 = test: Cytotoxicity against human NCI-H23 cells after 48 hrs by SRB assay; details: NCI-H23, 48 h
NCI-H460 = test: Cytotoxicity against human NCI-H460 cells after 48 hrs by SRB assay; details: NCI-H460, 48 h
NCI-H522 = test: Cytotoxicity against human NCI-H522 cells after 48 hrs by SRB assay; details: NCI-H522, 48 h
COLO 205 = test: Cytotoxicity against human COLO205 cells after 48 hrs by SRB assay; details: COLO 205, 48 h, read-out: pGI50 (converted)
HCC 2998 = test: Cytotoxicity against human HCC2998 cells after 48 hrs by SRB assay; details: HCC 2998, 48 h
HCT-116 = test: Cytotoxicity against human HCT116 cells after 48 hrs by SRB assay; details: HCT-116, 48 h
HCT-15 = test: Cytotoxicity against human HCT15 cells after 48 hrs by SRB assay; details: HCT-15, 48 h
HT-29 = test: Cytotoxicity against human HT-29 cells after 48 hrs by SRB assay; details: HT-29, 48 h
KM12 = test: Cytotoxicity against human KM12 cells after 48 hrs by SRB assay; details: KM12, 48 h
SW-620 = test: Cytotoxicity against human SW620 cells after 48 hrs by SRB assay; details: SW-620, 48 h
SF-268 = test: Cytotoxicity against human SF268 cells after 48 hrs by SRB assay; details: SF-268, 48 h
SF-295 = test: Cytotoxicity against human SF295 cells after 48 hrs by SRB assay; details: SF-295, 48 h, read-out: pGI50 (converted)
SF-539 = test: Cytotoxicity against human SF539 cells after 48 hrs by SRB assay; details: SF-539, 48 h
SNB-19 = test: Cytotoxicity against human SNB19 cells after 48 hrs by SRB assay; details: SNB-19, 48 h
SNB-75 = test: Cytotoxicity against human SNB75 cells after 48 hrs by SRB assay; details: SNB-75, 48 h
U-251 = test: Cytotoxicity against human U251 cells after 48 hrs by SRB assay; details: U-251, 48 h, read-out: pGI50 (converted)
LOX IMVI = test: Cytotoxicity against human LOXIMVI cells after 48 hrs by SRB assay
Malme-3M = test: Cytotoxicity against human MALME-3M cells after 48 hrs by SRB assay
M14 = test: Cytotoxicity against human M14 cells after 48 hrs by SRB assay; details: M14, 48 h
MDA-MB-435 = test: Cytotoxicity against human MDA-MB-435 cells after 48 hrs by SRB assay; details: MDA-MB-435, 48 h
SK-MEL-2 = test: Cytotoxicity against human SK-MEL-2 cells after 48 hrs by SRB assay; details: SK-MEL-2, 48 h
SK-MEL-28 = test: Cytotoxicity against human SK-MEL-28 cells after 48 hrs by SRB assay; details: SK-MEL-28, 48 h
SK-MEL-5 = test: Cytotoxicity against human SK-MEL-5 cells after 48 hrs by SRB assay; details: SK-MEL-5, 48 h, read-out: pGI50 (converted)
UACC-257 = test: Cytotoxicity against human UACC257 cells after 48 hrs by SRB assay; details: UACC-257, 48 h
UACC-62 = test: Cytotoxicity against human UACC62 cells after 48 hrs by SRB assay; details: UACC-62, 48 h
IGROV-1 = test: Cytotoxicity against human IGROV1 cells after 48 hrs by SRB assay; details: IGROV-1, 48 h, read-out: pGI50 (converted)
OVCAR-3 = test: Cytotoxicity against human OVCAR3 cells after 48 hrs by SRB assay; details: OVCAR-3, 48 h
OVCAR-4 = test: Cytotoxicity against human OVCAR4 cells after 48 hrs by SRB assay; details: OVCAR-4, 48 h
OVCAR-5 = test: Cytotoxicity against human OVCAR5 cells after 48 hrs by SRB assay; details: OVCAR-5, 48 h
OVCAR-8 = test: Cytotoxicity against human OVCAR8 cells after 48 hrs by SRB assay; details: OVCAR-8, 48 h, read-out: pGI50 (converted)
[1] = Cytotoxicity against human NCI-ADR-RES cells after 48 hrs by SRB assay
SK-OV-3 = test: Cytotoxicity against human SKOV3 cells after 48 hrs by SRB assay; details: SK-OV-3, 48 h
[2] = Cytotoxicity against human 786-O cells after 48 hrs by SRB assay; details: 786-0, 48 h
A498 = test: Cytotoxicity against human A498 cells after 48 hrs by SRB assay; details: A498, 48 h
ACHN = test: Cytotoxicity against human ACHN cells after 48 hrs by SRB assay
CAKI-1 = test: Cytotoxicity against human Caki1 cells after 48 hrs by SRB assay; details: CAKI-1, 48 h
RXF 393 = test: Cytotoxicity against human RXF393 cells after 48 hrs by SRB assay; details: RXF 393, 48 h
SN12C = test: Cytotoxicity against human SN12C cells after 48 hrs by SRB assay
TK-10 = test: Cytotoxicity against human TK10 cells after 48 hrs by SRB assay; details: TK-10, 48 h
UO-31 = test: Cytotoxicity against human UO31 cells after 48 hrs by SRB assay; details: UO-31, 48 h
PC-3 = test: Cytotoxicity against human PC3 cells after 48 hrs by SRB assay; details: PC-3, 48 h
DU-145 = test: Cytotoxicity against human DU145 cells after 48 hrs by SRB assay; details: DU-145, 48 h
MCF7 = test: Cytotoxicity against human MCF7 cells after 48 hrs by SRB assay; details: MCF7, 48 h
MDA-MB-231 = test: Cytotoxicity against human MDA-MB-231 cells after 48 hrs by SRB assay; details: MDA-MB-231, 48 h, read-out: pGI50 (converted)
Hs-578T = test: Cytotoxicity against human Hs578T cells after 48 hrs by SRB assay
BT-549 = test: Cytotoxicity against human BT549 cells after 48 hrs by SRB assay; details: BT-549, 48 h
T47D = test: Cytotoxicity against human T47D cells after 48 hrs by SRB assay

CO[C@H](C(=O)[C@@H](O)[C@@H](C)O)[C@@H]1Cc2cc3cc(O[C@H]4C[C@@H](O[C@H]5C[C@@H](O)[C@H](O)[C@@H](C)O5)[C@H](O)[C@@H](C)O4)c(C)c(O)c3c(O)c2C(=O)[C@H]1O[C@H]1C[C@@H](O[C@H]2C[C@@H](O[C@H]3C[C@H](O)[C@H](O)[C@@H](C)O3)[C@H](O)[C@@H](C)O2)[C@H](O)[C@@H](C)O1
GI50 (MDA-MB-468): 50.1 nM
GI50 (EKVX): 135 nM
GI50 (HOP-62): 56.2 nM
GI50 (A549): 41.7 nM
GI50 (RPMI-8226): 11.8 nM
GI50 (SR): 14.1 nM
GI50 (K562): 24.6 nM
GI50 (MOLT-4): 47.9 nM
GI50 (CCRF-CEM): 28.2 nM
GI50 (HL-60): 53.7 nM
GI50 (HOP-92): 30.2 nM
GI50 (NCI-H226): 45.7 nM
GI50 (NCI-H23): 41.7 nM
GI50 (NCI-H460): 21.4 nM
GI50 (NCI-H522): 14.1 nM
GI50 (COLO 205): 49 nM
GI50 (HCC 2998): 61.7 nM
GI50 (HCT-116): 19.5 nM
GI50 (HCT-15): 1050 nM
GI50 (HT-29): 75.9 nM
GI50 (KM12): 29.5 nM
GI50 (SW-620): 29.5 nM
GI50 (SF-268): 30.9 nM
GI50 (SF-295): 39.8 nM
GI50 (SF-539): 33.1 nM
GI50 (SNB-19): 43.6 nM
GI50 (SNB-75): 30.2 nM
GI50 (U-251): 23.4 nM
GI50 (LOX IMVI): 20.4 nM
GI50 (Malme-3M): 24 nM
GI50 (M14): 100 nM
GI50 (MDA-MB-435): 42.7 nM
GI50 (SK-MEL-2): 33.9 nM
GI50 (SK-MEL-28): 27.5 nM
GI50 (SK-MEL-5): 27.5 nM
GI50 (UACC-257): 69.2 nM
GI50 (UACC-62): 12.3 nM
GI50 (IGROV-1): 75.9 nM
GI50 (OVCAR-3): 69.2 nM
GI50 (OVCAR-4): 209 nM
GI50 (OVCAR-5): 79.4 nM
GI50 (OVCAR-8): 53.7 nM
GI50 [1]: 7760 nM
GI50 (SK-OV-3): 102 nM
GI50 [2]: 61.7 nM
GI50 (A498): 32.4 nM
GI50 (ACHN): 155 nM
GI50 (CAKI-1): 229 nM
GI50 (RXF 393): 25.7 nM
GI50 (SN12C): 35.5 nM
GI50 (TK-10): 129 nM
GI50 (UO-31): 166 nM
GI50 (PC-3): 100 nM
GI50 (DU-145): 91.2 nM
GI50 (MCF7): 12.9 nM
GI50 (MDA-MB-231): 132 nM
GI50 (Hs-578T): 28.2 nM
GI50 (BT-549): 17 nM
GI50 (T47D): 44.7 nM
